According to patent publication US5063243A, “Derivative of caffeic acid and pharmaceutical composition containing the same” (Suntory, Ltd., priority 1988, dated 1991):

Legend:
Assay type in all cases: biochemical
[1] = biological target: T1, 12-lipoxygenase (Rattus norvegicus, UniProt F1LQ70); assay: 12-lipoxygenase inhibitory activity, Method 3 (rat platelet soluble fraction, 12-HETE production); conditions: 5 min, sample compound 10 μM, arachidonic acid 40 μM, 5 minutes at 37° C., control without sample compound = 100%, read-out: production index of 12-HETE, Method 3 (%)
T1 construct: Washed platelet was prepared in the usual way; from tissue; host or cells: rat blood platelets (Method 1: washed platelets; Method 2: frozen, thawed and ultrasonified platelets; Method 3: platelet soluble fraction after freeze-thaw and centrifugation)
T1 sequence (F1LQ70 1-663): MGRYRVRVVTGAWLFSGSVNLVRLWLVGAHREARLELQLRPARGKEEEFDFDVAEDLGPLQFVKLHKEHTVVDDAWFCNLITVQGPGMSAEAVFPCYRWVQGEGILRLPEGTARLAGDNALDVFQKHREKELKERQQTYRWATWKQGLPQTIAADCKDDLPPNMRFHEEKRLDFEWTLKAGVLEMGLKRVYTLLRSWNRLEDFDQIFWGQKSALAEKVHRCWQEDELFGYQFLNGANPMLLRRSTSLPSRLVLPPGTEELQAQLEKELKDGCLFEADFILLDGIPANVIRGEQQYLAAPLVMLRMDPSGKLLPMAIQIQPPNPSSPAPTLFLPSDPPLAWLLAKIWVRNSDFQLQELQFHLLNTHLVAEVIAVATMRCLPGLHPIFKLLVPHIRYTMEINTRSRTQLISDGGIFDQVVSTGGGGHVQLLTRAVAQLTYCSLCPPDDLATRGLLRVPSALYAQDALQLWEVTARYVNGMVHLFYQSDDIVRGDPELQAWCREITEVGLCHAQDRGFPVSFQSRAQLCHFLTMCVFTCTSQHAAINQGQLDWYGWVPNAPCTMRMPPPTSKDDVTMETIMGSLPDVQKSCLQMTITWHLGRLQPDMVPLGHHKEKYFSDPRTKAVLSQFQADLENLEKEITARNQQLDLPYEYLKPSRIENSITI
Protocol: (§1) The 12-lipoxygenase inhibitory activity of the compounds of the present invention was measured by conducting the three types of pharmacological tests described below.
The platelet-rich plasma obtained in the same way as described in Method 2 was washed successively with isotonic buffer solution (A) and isotonic buffer solution (B) [134 mM NaCl, 5 mM D-glucose, 0.1 mM DETA, 0.1 mM EGTA, 15 mM Tris-HCl (pH=7.4)] in that order, and suspended in a hypotonic buffer solution (C) [25 mM Tris-HCl (pH=7.7)]. The suspension was treated by a "freeze-thaw" procedure three times and centrifuged at 10500× g for 60 minutes. An aliquot of the supernatant (platelet soluble fraction) was used as the enzyme solution. To the hypotonic buffer solution (C) were added 1 mM GSH, [^14 C]arachidonic acid (0.025 μCi) (final concentration: 40 μM), the sample compound (final concentration: 10 μM) and the enzyme solution (50 μg protein) and the mixture was reacted for 5 minutes at 37° C. The index of 12-lipoxygenase inhibitory activity was obtained in the same way as described in Method 2.
(§2) The production indexes of 12-HETE under the inhibitory influence of the compounds of the present invention are shown in Table 2, where the production amount of the control experiment (in the absence of the sample compound) is 100%.

[2] = biological target: T1, 12-lipoxygenase; assay: 12-lipoxygenase inhibitory activity, Method 2 (ultrasonified rat platelet enzyme solution, 12-HETE production); conditions: 5 min, sample compound 1 μM, arachidonic acid 4.3 μM, 5 minutes at 37° C., control without sample compound = 100%, read-out: production index of 12-HETE, Method 2 (%)
Protocol: The 12-lipoxygenase inhibitory activity of the compounds of the present invention was measured by conducting the three types of pharmacological tests described below. Citrated blood was collected from the heart of a rat and platelet-rich plasma was prepared in the usual way. The plasma was washed twice with isotonic buffer solution (A) [134 mM NaCl, 5 mM D-glucose, 1 mM EDTA, 1 mM EGTA, 15 mM Tris-HCl (pH=7.4)], frozen and stored at -80° C. It was thawed before use, ultrasonified in ice water and used as the enzyme solution. To the isotonic buffer solution (A) were added 1 mM GSH, the sample compound (final concentration: 1 μM) and the enzyme solution (300 to 500 μg protein) and the mixture was pre-incubated for 5 minutes at 37° C.; then [^14 C]arachidonic acid (0.05 μCi) (final concentration: 4.3 μM) was further added and reacted for 5 minutes. […] The reduction in 12-HETE production was used as the index of 12-lipoxygenase inhibitory activity.

[3] = biological target: T1, 12-lipoxygenase; assay: 12-lipoxygenase inhibitory activity, Method 1 (washed rat platelet, 12-HETE production); conditions: sample compound 10 μM, 3 to 5 minutes at 37° C., control without sample compound = 100%, read-out: production index of 12-HETE, Method 1 (%)
Protocol: as §1
Citrated blood was collected from the abdominal aorta of a rat. Washed platelet was prepared in the usual way, diluted with phosphate buffer (pH=8.0) containing 0.45% NaCl and used as the enzyme solution. To the solution were added the sample compound (10 μM), [^14 C]arachidonicacid (0.2 μCi) and arachidonic acid (3 μg) and the mixture was reacted for 3 to 5 minutes at 37° C. The reaction mixture was developed by thin layer chromatography and 12-HETE was identified by a radio chromato scanner. The reduction in 12-HETE production which resulted was used as the index of 12-lipoxygenase inhibitory activity.
as §2

activity at 10 µM [1] | activity at 1 µM [2] | activity at 10 µM [3] | Compound
19.1% | – | – | COc1ccccc1CCOC(=O)C(C#N)=Cc1ccc(O)c(O)c1 [compound 14, 2-Methoxyphenethyl 2-cyano-3-(3,4-dihydroxyphenyl)-2-propenoate]
– | 13.2% | – | N#CC(=Cc1ccc(O)c(O)c1)C(=O)OCC=Cc1ccccc1 [compound 17, 3-Phenyl-2-propenyl 2-cyano-3-(3,4-dihydroxyphenyl)-2-propenoate]
19.5% | – | – | COc1ccc(CCOC(=O)C(C#N)=Cc2ccc(O)c(O)c2)cc1 [compound 13, 4-Methoxyphenethyl 2-cyano-3-(3,4-dihydroxyphenyl)-2-propenoate]
25.1% | 10% | – | N#CC(=Cc1ccc(O)c(O)c1)C(=O)OCCc1ccccc1 [Compound No. 9, Phenethyl 2-cyano-3-(3,4-dihydroxyphenyl)-2-propenoate]
– | 12.1% | – | N#CC(=Cc1ccc(O)c(O)c1)C(=O)OCCCc1ccccc1 [compound 10, Phenylpropyl 2-cyano-3-(3,4-dihydroxyphenyl)-2-propenoate]
– | 8.5% | – | N#CC(=Cc1ccc(O)c(O)c1)C(=O)OCCOc1ccccc1 [compound 18, 2-Phenoxyethyl 2-cyano-3-(3,4-dihydroxyphenyl)-2-propenoate]
– | 14.2% | – | N#CC(=Cc1ccc(O)c(O)c1)C(=O)OCCCCc1ccccc1 [compound 11, Phenylbutyl 2-cyano-3-(3,4-dihydroxyphenyl)-2-propenoate]
22.7% | 9.8% | 27% | O=c1cc(-c2ccccc2)oc2cc(O)c(O)c(O)c12 [Baicalein, baicalein, reference compound]
– | – | 31.4% | CC(C)OC(=O)C(C#N)=Cc1ccc(O)c(O)c1 [Compound No. 6, isopropyl 2-cyano-3-(3,4-dihydroxyphenyl)-2-propenoate]
– | – | 38.1% | CCOC(=O)C(C#N)=Cc1ccc(O)c(O)c1 [Compound No. 1, Ethyl 2-cyano-3-(3,4-dihydroxyphenyl)-2-propenoate]
– | – | 36% | COC(=O)C(C#N)=Cc1ccc(O)c(O)c1 [Compound No. 5, methyl 2-cyano-3-(3,4-dihydroxyphenyl)-2-propenoate]
– | 8.7% | – | N#CC(=Cc1ccc(O)c(O)c1)C(=O)OCCc1cccs1 [compound 15, 2-(2-Thienyl)ethyl 2-cyano-3-(3,4-dihydroxyphenyl)-2-propenoate]
